Data taken from patent US20230286925A1, “PHENYL TRIAZOLE MLL1-WDR5 PROTEIN-PROTEIN INTERACTION INHIBITOR” (HUYABIO International, LLC, priority 2022, published 2023).

Columns and labels:
[1] = molecular target: MLL1-WDR5 protein-protein interaction (Homo sapiens (Human), UniProt P61964); assay: WDR5 TR-FRET assay of inhibition against MLL1-WDR5 protein-protein interaction; format: binding; conditions: WDR5 TR-FRET, 5 nM WDR5 protein, 10 nM peptide; read-out: MLL1-WDR5 PPI inhibitory activity
Description: WDR5 TR-FRET Assay Procedure: Stock compounds were transferred to the assay plate by Echo Liquid Handler. Reactions were performed in the assay buffer (1×PBS, 300 mM NaCl, 0.5 mM TCEP, 0.1% CHAPS) containing 5 nM WDR5 protein, 10 nM peptide (Ac-ARTEVHLRKS-[Ahx-Ahx] [C]-Alexa Fluor 488-NH2) and 0.25 nM Tb-anti His antibody (Tb-Ab) in 384-well white plate (PerkinElmer) with a final volume of 20 μl. Compounds were incubated with WDR5 protein for 30 min at room temperature. Plates were covered, protected from light and incubated for 60 min at room temperature after adding the peptide and Tb-Ab. EnVision Multimode Plate Reader (PerkinElmer) was used for the TR-FRET assay with excitation wavelength at 340 nm and emission wavelength at 495 and 520 nm. The ratio of the 520/495 wavelengths were used to assess the degree of the FRET signal. IC50 was calculated by fitting the inhibition data using XLfit software to sigmoidal dose-response model.
Biphenyl compound DDO-2084 was reported to be a small molecule inhibitor that can inhibit MLL1-WDR5 protein-protein interaction, reduce MLL1 enzyme catalytic activity, and downregulate the expression of Hox and Meis-1 genes (Eur. J. Med. Chem. 2016, 124, 480-489). DDO-2084 is used as a positive control compound.

MV-411 cells = assay: Anti-proliferative activity against leukemia cells (CellTiterGlo viability, 72 hrs); format: cell-based; conditions: Table 6
Description: Procedure: MV-411 or Molm-13 cells were seeded into 384 well plates at 2000 cells/well density in 50 uL according plate map and were allowed to naturally sediment by waiting about 30 min in Clean Bench. Next, plated cells were centrifuged for 1 min at 1000 rpm and the excess cells were transferred into the flasks for further culture. Cells in the assay plates were incubated (at least 4 hrs) at 37° C., 5% CO2 for next process followed by adding the compounds as the plate map indicated. The tests were performed in duplicates with treatment of compounds at 10 pts 3 fold titration in 384 well plates. Taxol was as positive control while DMSO as negative control. To rule out edge effect, the wells on the edge were not seeded and therefore one 384 well plate holds 13 compounds. Cells viability was measured 72 hrs after incubation with compounds and using CellTiterGlo (promega) viability assay according to manufactory's instruction to check the ATP production in each well.
Experiments on anti-proliferative activity against leukemia cells were conducted with some of the compounds of the invention.

[2] = MV4-11, MV-411 human acute monocytic leukemia cell
[3] = MV-411 human acute monocytic leukemia cell

## Cc1c(F)c(N)cc(C(=O)Nc2cc(-n3cc(C(=O)NCCCN4CCOCC4)nn3)ccc2N2C[C@@H](C)N(C)[C@@H](C)C2)c1Cl [HYBI_021]
[1]
  IC50: 7.09 nM
MV-411 cells; [2]
  GI50: 25.1 µM

## Cc1c(F)c(N)cc(C(=O)Nc2cc(-n3cc(C(=O)NCCCN4CCOCC4)nn3)ccc2N2CCCN(C)CC2)c1Cl [HYBI_022]
[1]
  IC50: 62.3 nM
MV-411 cells; [2]
  GI50: 17.2 µM

## Cc1c(F)c(N)cc(C(=O)Nc2cc(-n3cc(C(=O)NCCCN4CCOCC4)nn3)c(F)cc2N2CCN(C)CC2)c1Cl [HYBI_023]
[1]
  IC50: 19.8 nM
MV-411 cells; [2]
  GI50: 32 µM

## Cc1c(F)c(N)cc(C(=O)Nc2cc(-n3cc(C(=O)NCCCN4CCOCC4)nn3)c(F)cc2N2CCN(C)C(C)C2)c1Cl (stereo not drawn) [HYBI_027]
[1]
  IC50: 10.8 nM
MV-411 cells; [2]
  GI50: 20 µM

## Cc1c(F)c(N)cc(C(=O)Nc2cc(-n3cc(C(=O)NCCCN4CCOCC4)nn3)c(F)cc2N2C[C@@H](C)N(C)[C@@H](C)C2)c1Cl [HYBI_028]
[1]
  IC50: 5.24 nM
MV-411 cells; [2]
  GI50: 30.9 µM

## Cc1cc(C(=O)Nc2cc(-n3cc(C(=O)NCCCN4CCOCC4)nn3)ccc2N2CCN(C)CC2)cc(C)c1F [HYBI_037]
[1]
  IC50: 109 nM
MV-411 cells; [2]
  GI50: 8.38 µM

## Cc1c(F)ccc(C(=O)Nc2cc(-n3cc(C(=O)NCCCN4CCOCC4)nn3)ccc2N2CCN(C)CC2)c1Cl [HYBI_038]
[1]
  IC50: 185 nM
MV-411 cells; [2]
  GI50: 17.5 µM

## Cc1c(F)c([N+](=O)[O-])cc(C(=O)Nc2cc(-n3cc(C(=O)NCCCN4CCOCC4)nn3)ccc2N2CCN(C)CC2)c1Cl [HYBI_039]
[1]
  IC50: 131 nM
MV-411 cells; [2]
  GI50: 0.108 µM

## CN1CCN(c2ccc(-n3cc(C(=O)NCCCN4CCOCC4)nn3)cc2NC(=O)c2ccc(F)c([N+](=O)[O-])c2)CC1 [HYBI_040]
[1]
  IC50: 828 nM
MV-411 cells; [2]
  GI50: 0.21 µM

## CN1CCN(c2ccc(-n3cc(C(=O)NCCCN4CCOCC4)nn3)cc2NC(=O)c2ccc(F)c(C(F)(F)F)c2)CC1 [HYBI_042]
[1]
  IC50: 802 nM
MV-411 cells; [2]
  GI50: 4.75 µM

## Cc1cc(C)cc(C(=O)Nc2cc(-n3cc(C(=O)NCCCN4CCOCC4)nn3)ccc2N2CCN(C)CC2)c1 [HYBI_044]
[1]
  IC50: 903 nM
MV-411 cells; [2]
  GI50: 64.8 µM

## CN1CCN(c2ccc(-n3cc(C(=O)NCCCN4CCOCC4)nn3)cc2NC(=O)c2cc(Cl)cc(Cl)c2)CC1 [HYBI_045]
[1]
  IC50: 384 nM
MV-411 cells; [2]
  GI50: 4.15 µM

## CN1CCN(c2ccc(-n3cc(C(=O)NCCCN4CCOCC4)nn3)cc2NC(=O)c2cc(O)cc(C(F)(F)F)c2)CC1 [HYBI_046]
[1]
  IC50: 271 nM
MV-411 cells; [2]
  GI50: 10.5 µM

## CN1CCN(c2ccc(-n3cc(C(=O)NCCCN4CCOCC4)nn3)cc2NC(=O)c2cc(O)cc(F)c2F)CC1 [HYBI_047]
[1]
  IC50: 466 nM
MV-411 cells; [2]
  GI50: 16.8 µM

## CN1CCN(c2ccc(-n3cc(C(=O)NCCCN4CCOCC4)nn3)cc2NC(=O)c2nn(C)c3ccccc23)CC1 [HYBI_050]
[1]
  IC50: 5560 nM
MV-411 cells; [2]
  GI50: 10.7 µM

## Cc1c(F)ccc(C(=O)Nc2cc(-n3cc(C(=O)NCCCN4CCOCC4)nn3)c(F)cc2N2CCN(C)CC2)c1Cl [HYBI_053]
[1]
  IC50: 19.4 nM
MV-411 cells; [3]
  GI50: 5.69 µM

## CCN(CC)C(=O)c1cn(-c2cc(NC(=O)c3cc(N)c(F)c(C)c3Cl)c(N3C[C@@H](C)N(C)[C@@H](C)C3)cc2F)nn1 [HYBI_082]
[1]
  IC50: 4.91 nM
MV-411 cells; [3]
  GI50: 2.4 µM

## Cc1c(F)c(N)cc(C(=O)Nc2cc(-n3cc(C(=O)N4CCOCC4)nn3)c(F)cc2N2C[C@@H](C)N(C)[C@@H](C)C2)c1Cl [HYBI_083]
[1]
  IC50: 3.08 nM
MV-411 cells; [2]
  GI50: 40.2 µM
